In patent US5527703A (Merck & Co., Inc., priority 1994, dated 1996):

Columns and labels:
GluClβ = biological target: T1, GluClβ (Caenorhabditis elegans, UniProt Q17328); assay: Activation of current in Xenopus oocytes expressing homomeric GluClβ (voltage clamp); assay type: cell-based, C. elegans
T1 construct: the full-length open reading frame of the GluCl cDNA encoding the GluClα (52,550 kDa) and GluClβ (49,900kDa) subunits; expressed in transfected cells; host or cells: Xenopus laevis oocytes injected with in vitro RNA
T1 sequence (Q17328 23-434): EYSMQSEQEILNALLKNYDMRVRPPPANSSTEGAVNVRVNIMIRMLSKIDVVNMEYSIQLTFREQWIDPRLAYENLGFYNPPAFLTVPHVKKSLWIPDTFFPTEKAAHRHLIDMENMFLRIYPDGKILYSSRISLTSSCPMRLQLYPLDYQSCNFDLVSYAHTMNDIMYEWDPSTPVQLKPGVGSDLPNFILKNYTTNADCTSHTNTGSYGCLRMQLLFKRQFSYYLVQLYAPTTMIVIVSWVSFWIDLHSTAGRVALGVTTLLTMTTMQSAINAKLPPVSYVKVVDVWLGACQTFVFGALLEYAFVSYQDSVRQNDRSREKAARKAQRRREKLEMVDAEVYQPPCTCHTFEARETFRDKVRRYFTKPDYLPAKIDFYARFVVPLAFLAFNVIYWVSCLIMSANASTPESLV
Method: (§1) Xenopus laevis oocytes were prepared and injected using standard methods previously described and known in the art [Arena, J. P., Liu. K. K., Paress, P. S. & Cully. D. F. Mol. Pharmacol. 40, 368-374 (1991 ); Arena, J. P., Liu, K. K., Paress, P. S., Schaeffer, J. M. & Cully, D. F. Mol. Brain Res. 15, 339-348 (1992)]. Adult female Xenopus laevis were anesthetized with 0.17% tricaine methanesulfonate and the ovaries were surgically removed and placed in a dish consisting of (mM): NaCl 1 82.5, KCl 2. MgCl2 1, CaCl2 1.8, HEPES 5 adjusted to pH 7.5 with NaOH (OR-2). Ovarian lobes were broken open, rinsed several times, and gently shaken in OR-2 containing 0.2% collagenase (Sigma, Type 1A) for 2-5 hours. When approximately 50% of the follicular layers were removed, Stage V and VI oocytes were selected and placed in media consisting of (mM): NaCl 86, KCl 2, MgCl2 1, CaCl2 1.8, HEPES 5, Na pyruvate 2.5, theophylline 0.5, gentamicin 0.1 adjusted to pH 7.5 with NaOH (ND-96) for 24-48 hours before injection. Oocytes were injected with 50-70 nl of poly(A^+) RNA (1 mg/ml) or 50 nl of GluClα (0.1-100 ng) and/or GluClβ (0.1-100 ng). Control oocytes were injected with 50 nl of water. Oocytes were incubated for 2-10 days in ND-96 before recording. Incubations and collagenase digestion were carried out at 18° C.
(§2) Recordings were made at room temperature 2-10 days after injection. Unless otherwise indicated recordings were made in standard frog saline consisting of (mM): NaCl 115, KCl 2, MgCl2 1, CaCl2 1.8, HEPES 10 adjusted to pH 7.5 with NaOH. Oocytes were voltage-clamped using a standard two microelectrode amplifier (Dagan 8500 or TEV-200, Minneapolis,Minn.). Pipettes were filled with 3M KCl and had resistances between 0.5-3.0 M.OMEGA.. A plexiglass recording chamber (volume 200 μl) was constantly perfused at a rate of 10 ml/min. The recording chamber was connected to ground with a Ag/AgCl electrode directly, or through a 3M KCl agar bridge when extracellular chloride was varied. For low chloride solutions NaCl was replaced with equimolar concentrations of sodium isethionic acid. For low sodium solutions NaCl was replaced with equimolar KCl or choline Cl. Data were acquired and analyzed using PCLAMP with a TL-1 interface (Axon Instruments, Foster City, Calif.). Membrane current at a holding potential of -80 mV was recorded. The amplitude of drug-sensitive current was determined by subtracting the holding current at -80 mV from the peak current obtained in the presence of drug. Data were filtered at 30 Hz and sampled at 16.6 Hz. Current/voltage relationships (I/V) and reversal potentials (Erev) were determined using a 1-3 sec voltage ramp over the voltage range of -110 to +80 mV. For the ramps, data were filtered at 0.3-3 kHz and sampled at 160 Hz. Current in drug free solution was subtracted from current in the presence of drug to obtain drug-sensitive current/voltage relationships.
(§3) Electrophysiological properties were examined in oocytes injected with in vitro RNA from pGluClα and pGluClβ (FIG. 5).

[1] = system: glutamate- and avermectin-sensitive chloride channel (C. elegans poly(A)+ RNA); assay: Current in Xenopus oocytes injected with C. elegans poly(A)+ RNA; assay type: cell-based; settings: for type of drug-sensitive current: poly(A)+ RNA injected oocytes
Method: as §1
Recordings were made at room temperature 2-10 days after injection. Unless otherwise indicated recordings were made in standard frog saline consisting of (mM): NaCl 115, KCl 2, MgCl2 1, CaCl2 1.8, HEPES 10 adjusted to pH 7.5 with NaOH. […] Data were acquired and analyzed using PCLAMP with a TL-1 interface (Axon Instruments, Foster City, Calif.). Membrane current at a holding potential of -80 mV was recorded. The amplitude of drug-sensitive current was determined by subtracting the holding current at -80 mV from the peak current obtained in the presence of drug. […] Current/voltage relationships (I/V) and reversal potentials (Erev) were determined using a 1-3 sec voltage ramp over the voltage range of -110 to +80 mV. […]

GluCl α&β = biological target: T2, GluCl α&β (Caenorhabditis elegans, UniProt G5EBR3+Q17328); assay: Modulation of glutamate-sensitive current by IVMPO4, GluCl α&β injected oocytes; assay type: cell-based, C. elegans
T2 construct: the full-length open reading frame of the GluCl cDNA encoding the GluClα (52,550 kDa) and GluClβ (49,900kDa) subunits; expressed in transfected cells; host or cells: Xenopus laevis oocytes injected with in vitro RNA
T2 sequence (G5EBR3 21-461): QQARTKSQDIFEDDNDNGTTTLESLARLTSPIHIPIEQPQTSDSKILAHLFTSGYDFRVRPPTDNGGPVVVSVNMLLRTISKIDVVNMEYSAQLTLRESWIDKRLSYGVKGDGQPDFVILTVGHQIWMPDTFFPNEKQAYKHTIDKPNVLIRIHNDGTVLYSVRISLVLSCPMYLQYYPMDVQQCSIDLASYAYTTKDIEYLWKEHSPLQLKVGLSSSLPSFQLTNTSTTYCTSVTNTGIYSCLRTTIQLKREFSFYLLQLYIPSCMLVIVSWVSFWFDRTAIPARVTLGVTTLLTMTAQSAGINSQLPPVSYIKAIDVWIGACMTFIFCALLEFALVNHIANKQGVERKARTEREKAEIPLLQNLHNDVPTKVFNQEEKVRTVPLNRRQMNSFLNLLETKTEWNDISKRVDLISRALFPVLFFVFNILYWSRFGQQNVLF
T2 sequence (Q17328 23-434): T1 sequence (Q17328 23-434)
Method: Xenopus laevis oocytes were prepared and injected using standard methods previously described and known in the art [Arena, J. P., Liu. K. K., Paress, P. S. & Cully. D. F. Mol. Pharmacol. 40, 368-374 (1991 ); Arena, J. P., Liu, K. K., Paress, P. S., Schaeffer, J. M. & Cully, D. F. Mol. Brain Res. 15, 339-348 (1992)]. Adult female Xenopus laevis were anesthetized with 0.17% tricaine methanesulfonate and the ovaries were surgically removed and placed in a dish consisting of (mM): NaCl 1 82.5, KCl 2. MgCl2 1, CaCl2 1.8, HEPES 5 adjusted to pH 7.5 with NaOH (OR-2). Ovarian lobes were broken open, rinsed several times, and gently shaken in OR-2 containing 0.2% collagenase (Sigma, Type 1A) for 2-5 hours. […]
Recordings were made at room temperature 2-10 days after injection. […] Data were acquired and analyzed using PCLAMP with a TL-1 interface (Axon Instruments, Foster City, Calif.). Membrane current at a holding potential of -80 mV was recorded. The amplitude of drug-sensitive current was determined by subtracting the holding current at -80 mV from the peak current obtained in the presence of drug. […] Current/voltage relationships (I/V) and reversal potentials (Erev) were determined using a 1-3 sec voltage ramp over the voltage range of -110 to +80 mV. […]

GluClα = biological target: T3, GluClα (Caenorhabditis elegans, UniProt G5EBR3); assay: Activation of current in Xenopus oocytes expressing homomeric GluClα (voltage clamp); assay type: cell-based, C. elegans; set-up: the full-length open reading frame of the GluCl cDNA encoding the GluClα (52,550 kDa) and GluClβ (49,900kDa) subunits; expressed in transfected cells; host or cells: Xenopus laevis oocytes injected with in vitro RNA
T3 sequence (G5EBR3 21-461): T2 sequence (G5EBR3 21-461)
Method: as §1, §2, §3

Row | Molecule | response of homomeric GluClβ channels (GluClβ) | threshold for activation of homomeric GluClβ channels (GluClβ) | Hill coefficient (glutamate) (GluClβ; GluClβ) | voltage dependence of current (GluClβ; I/V, GluClβ) | EC50 (GluClβ; read-out: EC50 for glutamate, GluClβ alone) | type of drug-sensitive current [1] | Hill coefficient (glutamate) with coapplied IVMPO4 (GluCl α&β; coapplication of IVMPO4 and glutamate) | response of homomeric GluClα channels (GluClα) | sensitivity of GluClα channels to glutamate (GluClα; glutamate concentrations as high as 10 mM) | time for maximal activation of IVMPO4-sensitive current ([1]; poly(A)+ RNA) | potentiation of glutamate-sensitive current (GluCl α&β; IVMPO4 5 nM) | Hill coefficient (IVMPO4) (GluClα; GluClα) | EC50 (GluClα; GluClα, read-out: EC50 for IVMPO4 activation of current) | voltage dependence of current (GluClα; I/V, GluClα) | time course for IVMPO4 activation (GluClα; homomeric GluClα)
1 | N[C@@H](CCC(=O)O)C(=O)O [glutamate] | selectively responsive | 50 µM | 1.9 | steep outwardly rectifying voltage dependence | 380 µM | rapidly activating reversible | 1.3 | do not respond | insensitive |  |  |  |  |  | 
2 | ivermectin-4-O-phosphate [IVMPO4] | do not respond |  |  |  |  | irreversible |  | selectively responsive |  | 36 ± 3 s | 490±45% | 1.5 | 0.14 µM | essentially a linear voltage dependence | 18 ± 1 s
